In patent EP3192802A1, “STABILIZED PEPTIDE DERIVATIVES” (Bicycle Therapeutics Limited, priority 2016, dated 2017):

Columns and labels:
MT1-MMP [1] = molecular target: T1, MT1-MMP (Homo sapiens, UniProt P50281); experiment: fluorescence polarisation competition experiments (affinity to MT1-MMP); format: binding; settings: tris-sulfone version, Figure 2
Procedure: Subsequently, the affinity to the MT1-MMP target was measured by fluorescence polarisation competition experiments for 17-69-07-N241, and its sulfone versions (Figure 2).

MT1-MMP [2] = molecular target: T1, MT1-MMP; experiment: selectivity / cross-reactivity against other MMPs; format: binding; settings: does not cross-react with MMP-1, MMP-2, MMP-15 and MMP-16

Kd (MT1-MMP [1])	selectivity for MT1-MMP (MT1-MMP [2])	Molecule
~10 nM		C[C@H](NC(=O)CN(C)C(=O)CN(C)C(=O)CN(C)C(=O)CN(C)C(=O)CN(C)C(=O)CN(C)C(=O)CN(C)C(=O)CN(C)C(=O)CN(C)C(=O)CN(C)C(=O)CCN)C(=O)N[C@H]1CS(=O)(=O)Cc2cc3cc(c2)CS(=O)(=O)C[C@H](NC(=O)[C@@H](C)NC(=O)[C@H](Cc2cccc4ccccc24)NC(=O)[C@H](CCC(=O)O)NC(=O)[C@H](CC(N)=O)NC(=O)[C@@H](C)NC1=O)C(=O)N[C@@H](CCC(=O)O)C(=O)N[C@@H](CC(=O)O)C(=O)N[C@@H](Cc1ccccc1)C(=O)N[C@@H](Cc1ccc(O)cc1)C(=O)N[C@@H](CC(=O)O)C(=O)N[C@@H](C(C)(C)C)C(=O)N[C@H](C(N)=O)CS(=O)(=O)C3 [17-69-07-N338]
	uniquely selective for MT1-MMP	-Ci-Y-N-E-F-G-Cii-E-D-F-Y-D-I-Ciii- [17-69-07]
